Results: ChEMBL document CHEMBL5042549, “Discovery of Inhibitors of the Lipopolysaccharide Transporter MsbA: From a Screening Hit to Potent Wild-Type Gram-Negative Activity” (J Med Chem, 2022)
pIC50: −log10 of the molar value. In brackets after ≈: the same amount, converted by molar mass.

How the values were obtained:
[1] = Lipophilicity, logD of compound by shake flask method; type: physicochemical; settings: octanol/water
[2] = Inhibition of Escherichia coli MsbA preincubated for 10 mins followed by ATP addition and incubated for 1 hr by fluorescence polarization assay
Escherichia coli [3] = assay: Antibacterial activity against wild type Escherichia coli CFT073 (ATCC 700928) assessed as bacterial growth by broth microdilution assay; type: functional
Klebsiella pneumoniae = assay: Antibacterial activity against wild type Klebsiella pneumoniae MGH78578 (ATCC 700721) assessed as bacterial growth inhibition by broth microdilution assay; type: functional
Enterobacter cloacae = assay: Antibacterial activity against wild type Enterobacter cloacae (ATCC 13047) assessed as bacterial growth inhibition by broth microdilution assay; type: functional
Escherichia coli [4] = assay: Antibacterial activity against wild type Escherichia coli MG1655 msbA-cKO lptD (imp4213) expressing Escherichia coli MsbA assessed as bacterial growth inhibition by broth microdilution assay; type: functional
Escherichia coli [5] = assay: Antibacterial activity against wild type Escherichia coli MG1655 msbA-cKO lptD (imp4213) expressing Acinetobacter baumannii MsbA assessed as bacterial growth inhibition by broth microdilution assay; type: functional
Escherichia coli [6] = assay: Selectivity ratio of MIC for Escherichia coli MG1655 msbA-cKO lptD (imp4213) […]; type: functional
A549 = assay: Cytotoxicity against human A549 cells at 50 uM; type: toxicity, cell-based; settings: a549, 50 µM
Jurkat = assay: Cytotoxicity against human Jurkat cells at 50 uM; type: toxicity, cell-based
HEK293 = assay: Cytotoxicity against human HEK293 cells at 50 uM; type: toxicity, cell-based; settings: hek293, 50 µM
Escherichia coli [7] = assay: Antibacterial activity against wild type Escherichia coli MG1655 carrying lptD (imp4213) assessed as bacterial growth inhibition by broth microdilution assay; type: functional

logD [1]	pIC50 [2]	MIC (Escherichia coli [3])	SMILES	further results
3.3	8.10	25 µM	C[C@H](Oc1ccc2ncc(/C=C/c3nn[nH]n3)c(C(F)F)c2c1)c1c(Cl)cccc1Cl	MIC (Klebsiella pneumoniae): 25 µM (≈ 11.6 µg/mL); MIC (Enterobacter cloacae): 50 µM (≈ 23.1 µg/mL); MIC (Escherichia coli [4]): 1.6 µM (≈ 0.74 µg/mL); MIC (Escherichia coli [5]): 50 µM (≈ 23.1 µg/mL); Selectivity ratio (Escherichia coli [6]): 31; Activity (A549): Non-Toxic; Activity (Jurkat): Non-Toxic; Activity (HEK293): Non-Toxic
2.8	7.85	63 µM	C[C@H](Oc1ccc2ncc(/C=C/C(=O)O)c(C3CC3)c2c1)c1c(Cl)ccc(N)c1Cl	–
–	6.92	> 100 µM	C[C@H](Oc1ccc2ncc(/C=C/C(=O)O)c(C3COC3)c2c1)c1c(Cl)ccc(F)c1Cl	–
3.8	7.49	> 100 µM	C[C@H](Oc1ccc2nc(OCCN)c(CCC(=O)O)c(C3CC3)c2c1)c1c(Cl)ccc(F)c1Cl	–
5	< 5.00	> 100 µM	C[C@H](Oc1cccc(C2CC2)c1)c1c(Cl)ccc(F)c1Cl	MIC (Escherichia coli [7]): > 100 µM
2.5	7.85	> 100 µM	C[C@H](Oc1ccc2ncc(/C=C/S(=O)(=O)O)c(C3CC3)c2c1)c1c(Cl)ccc(F)c1Cl	–
3.1	8.10	25 µM	C[C@H](Oc1ccc2ncc(/C=C/C(=O)O)c(C(F)F)c2c1)c1c(Cl)ccc(F)c1Cl	–
4.9	< 5.00	> 100 µM	C[C@H](Oc1cccc(C2CC2)n1)c1c(Cl)ccc(F)c1Cl	MIC (Escherichia coli [7]): > 100 µM
3.6	6.54	> 100 µM	C[C@H](Oc1ccc2ncc(/C=C/C(=O)O)c(N(C)C)c2c1)c1c(Cl)ccc(F)c1Cl	–
1.9	5.30	> 100 µM	C[C@H](Oc1ccc2ncc(/C=C/C(=O)O)c(O)c2c1)c1c(Cl)ccc(F)c1Cl	–
2.3	6.96	> 100 µM	C[C@H](Oc1ccc2ncc(/C=C/C(=O)O)c(C#N)c2c1)c1c(Cl)ccc(F)c1Cl	–
3.7	7.57	> 100 µM	C[C@H](Oc1ccc(NC(=O)CC(N)=O)c(C2CC2)n1)c1c(Cl)ccc(F)c1Cl	MIC (Escherichia coli [7]): 12 µM (≈ 5.12 µg/mL)
–	5.14	> 100 µM	C[C@H](Oc1ccc2c(=O)nc(/C=C/C(=O)O)n(C3CC3)c2c1)c1c(Cl)ccc(F)c1Cl	–
2	5.66	> 100 µM	C[C@H](Oc1ccc2ncc(/C=C/C(=O)O)c(-n3ccnc3)c2c1)c1c(Cl)ccc(F)c1Cl	–
0.9	< 5.00	> 100 µM	Cc1cnn(C)c1[C@H](C)Oc1ccc2ncc(/C=C/C(=O)O)c(C3CC3)c2c1	–
–	< 4.30	> 100 µM	C[C@H](Oc1ccc2c(c1)CN(CCC(=O)O)CC2)c1c(Cl)ccc(F)c1Cl	–
4.3	8.70	12 µM	C[C@H](Oc1ccc2ncc(/C=C/c3nn[nH]n3)c(C3CC3)c2c1)c1c(Cl)cccc1Cl	MIC (Klebsiella pneumoniae): 12 µM (≈ 5.43 µg/mL); MIC (Enterobacter cloacae): 25 µM (≈ 11.3 µg/mL); MIC (Escherichia coli [4]): < 0.1 µM; MIC (Escherichia coli [5]): 50 µM (≈ 22.6 µg/mL); Selectivity ratio (Escherichia coli [6]): > 500; Activity (A549): Non-Toxic; Activity (Jurkat): Non-Toxic; Activity (HEK293): Non-Toxic
1.9	7.22	> 100 µM	C[C@H](Oc1ccc(NC(=O)CC(=O)O)c(C2CC2)c1)c1c(Cl)ccc(F)c1Cl	MIC (Escherichia coli [7]): 71 µM (≈ 30.3 µg/mL)
2.5	7.11	> 100 µM	C[C@H](Oc1ccc2ncc(S(=O)(=O)CC(=O)O)c(C3CC3)c2c1)c1c(Cl)ccc(F)c1Cl	–
–	6.82	> 100 µM	C[C@H](Oc1cc(B(O)O)c2ncc(/C=C/C(=O)O)c(C3CC3)c2c1)c1c(Cl)ccc(F)c1Cl	–
2.8	7.70	79 µM	C[C@H](Oc1cc(CC#N)c2ncc(/C=C/C(=O)O)c(C3CC3)c2c1)c1c(Cl)ccc(F)c1Cl	–
3.7	8.52	12 µM	C[C@H](Oc1ccc2ncc(/C=C/c3nn[nH]n3)c(C3CC3)c2c1)c1c(Cl)ccc(F)c1Cl	–
–	7.38	> 100 µM	C[C@H](Oc1ccc2ncc(O)c(C3CC3)c2c1)c1c(Cl)ccc(F)c1Cl	–
0.4	8.05	> 100 µM	C[C@H](Oc1ccc2ncc(/C=C/C(=O)NC(CC(=O)O)CC(=O)O)c(C3CC3)c2c1)c1c(Cl)ccc(F)c1Cl	–
4.1	8.40	79 µM	C[C@H](Oc1ccc2ncc(/C=C/C(=O)O)c(C3CC3)c2c1)c1c(Cl)ccc(F)c1Cl	–
3.9	6.34	> 100 µM	C[C@H](Oc1ccc(/C=C/C(=O)O)c(CC2CC2)c1)c1c(Cl)ccc(F)c1Cl	MIC (Escherichia coli [7]): 50 µM (≈ 20.5 µg/mL)
3.9	7.40	> 100 µM	C[C@H](Oc1ccc(NC(=O)CC(N)=O)c(C2CC2)c1)c1c(Cl)ccc(F)c1Cl	MIC (Escherichia coli [7]): 25 µM (≈ 10.6 µg/mL)

logD [1]	pIC50 [2]	MIC (Escherichia coli [3])	SMILES	further results
3.2	7.70	> 100 µM	C[C@H](Oc1ccc2nnc(/C=C/C(=O)O)c(C3CC3)c2c1)c1c(Cl)ccc(F)c1Cl	–
3	7.70	> 100 µM	Cc1c(/C=C/C(=O)O)cnc2ccc(O[C@@H](C)c3c(Cl)ccc(F)c3Cl)cc12	–
2.6	7.34	> 100 µM	C[C@H](Oc1nccc(N(c2nc(C(=O)O)cs2)C2CC2)n1)c1c(Cl)ccc(F)c1Cl	–
4.2	6.35	> 100 µM	C[C@H](Oc1ccnc(C2CC2)n1)c1c(Cl)ccc(F)c1Cl	MIC (Escherichia coli [7]): > 100 µM
2.2	7.62	> 100 µM	CC(Oc1ccc2ncc(/C=C/C(=O)O)c(C3CC3)c2c1)c1c(Cl)cccc1C#N (stereo not drawn)	–
3.6	7.00	> 100 µM	C[C@H](Oc1ccc(/C=C/C(=O)O)c(C2CC2)c1)c1c(Cl)ccc(F)c1Cl	MIC (Escherichia coli [7]): 100 µM (≈ 39.5 µg/mL)
3.2	5.66	> 100 µM	Cc1cc(O[C@@H](C)c2c(Cl)ccc(F)c2Cl)ccc1/C=C/C(=O)O	MIC (Escherichia coli [7]): > 100 µM
3.1	8.30	> 100 µM	C[C@H](Oc1ccc2ncc(/C=C/C(=O)N3CC[C@@H](N)[C@H](C(=O)O)C3)c(C3CC3)c2c1)c1c(Cl)ccc(F)c1Cl (mixture of isomers)	–
2.8	5.24	> 100 µM	C[C@H](Oc1ccc(/C=C/C(=O)O)cc1)c1c(Cl)ccc(F)c1Cl	MIC (Escherichia coli [7]): > 100 µM
–	7.92	> 100 µM	C[C@H](Oc1cnc2cnc(/C=C/C(=O)O)c(C3CC3)c2c1)c1c(Cl)cccc1Cl	–
1.7	7.89	> 100 µM	C[C@H](Oc1ccc2c(c1)c(C1CC1)c(/C=C/C(=O)O)c[n+]2[O-])c1c(Cl)ccc(F)c1Cl	–
2	6.26	> 100 µM	O=C(O)/C=C/c1cnc2ccc(O[C@@H](CO)c3c(Cl)cccc3Cl)cc2c1C1CC1	–
2.3	7.74	> 100 µM	C[C@H](Oc1ccc2ncc(/C=C/C(=O)O)c(C3CC3)c2c1)c1c(Cl)ccnc1Cl	–
3	4.41	–	CC(Oc1ccc2ncc(/C=C/C(=O)O)cc2c1)C1CCCCC1 (stereo not drawn)	–
–	7.60	> 100 µM	C[C@H](Oc1ccc2ncc(/C=C/C(=O)O)c(CF)c2c1)c1c(Cl)ccc(F)c1Cl	–
–	< 5.00	> 100 µM	CC(C)Oc1ccc2ncc(/C=C/C(=O)O)c(C3CC3)c2c1	–
4.1	8.15	> 100 µM	C[C@H](Oc1ccc2ncc(CCC(=O)O)c(C3CC3)c2c1)c1c(Cl)ccc(F)c1Cl	–
> 5.5	8.15	> 100 µM	C[C@H](Oc1ccc2ncc(/C=C/C(N)=O)c(C3CC3)c2c1)c1c(Cl)ccc(F)c1Cl	–
1.4	7.92	> 100 µM	C[C@H](Oc1ccc(NC(=O)CC(=O)O)c(C2CC2)n1)c1c(Cl)ccc(F)c1Cl	MIC (Escherichia coli [7]): 31 µM (≈ 13.2 µg/mL)
2.9	8.00	> 100 µM	C[C@H](Oc1cc(CO)c2ncc(/C=C/C(=O)O)c(C3CC3)c2c1)c1c(Cl)ccc(F)c1Cl	–
2.7	8.22	> 100 µM	C[C@H](Oc1ccc2ncc(-c3ccn(CCC(=O)O)n3)c(C3CC3)c2c1)c1c(Cl)cccc1Cl	–
4.5	7.49	> 100 µM	Cc1c(/C=C/C(=O)O)ccc2ccc(O[C@@H](C)c3c(Cl)ccc(F)c3Cl)cc12	–
4.3	5.47	> 100 µM	C[C@H](Oc1ccnc(C2CC2)c1)c1c(Cl)ccc(F)c1Cl	MIC (Escherichia coli [7]): > 100 µM
2.5	6.85	> 100 µM	C[C@H](Oc1ccc2ncc(/C=C/C(=O)O)cc2c1)c1c(Cl)ccc(F)c1Cl	–
2.9	8.70	35 µM	C[C@H](Oc1ccc2ncc(/C=C/C(=O)NS(C)(=O)=O)c(C3CC3)c2c1)c1c(Cl)cccc1Cl	–
3.7	8.70	30 µM	C[C@H](Oc1ccc2ncc(/C=C/C(=O)O)c(C3CC3)c2c1)c1c(Cl)cccc1Cl	–
